Results: patent US12485107B2, “Methods for the prevention or treatment of cytokine storm” (Beth Israel Deaconess Medical Center, Inc., priority 2019, dated 2025)
“Also recorded” adds a separate entry of the source.

What was measured:
[1] = tested on: primary murine peritoneal macrophages; assay: Cytokine array/ELISA of conditioned medium of primary murine peritoneal macrophages stimulated with paclitaxel-generated ID8 debris; format: cell-based; conditions: PTUPB 5 or 10 μM, 2 hours
Experimental: Macrophages were treated with vehicle or PTUPB (1-10 μM) in Dulbecco's phosphate-buffered saline containing calcium and magnesium (PBS^+/+) (Lonza, Basel, Switzerland) and incubated for 2 hours at 37° C. Carboplatin- or paclitaxel-generated ID8 or OVCAR5 debris was added to murine or human macrophages, respectively, at a 1:4 (macrophage:dead cell body) ratio and incubated for 1 hour at 37° C. Next, plates were aspirated, macrophages were re-fed with serum-free medium, and incubated overnight at 37° C. […]
In vivo cytokines (serum or ascites) or cytokines in conditioned medium of macrophages treated with PTUPB and exposed to paclitaxel- or carboplatin-generated debris, were assessed according to the protocols provided by Proteome Profiler Mouse Cytokine Array Kit Panel A, Proteome Profiler Mouse Angiogenesis Array Kit, or Proteome Profiler Human Cytokine Array Kit Panel A (R&D Systems, Inc., Minneapolis, MN). […]
For quantitation of pro-inflammatory cytokines, serum or conditioned medium from macrophages treated with PTUPB and stimulated with paclitaxel-generated ID8 debris or from paclitaxel-generated ID8 debris alone without macrophages was used according to the protocols provided in each ELISA kit (R&D Systems, Minneapolis, MN). […]

[2] = tested on: RAW264.7 murine macrophages; assay: Annexin V/PI cell death analysis of RAW264.7 macrophages; format: cell-based; conditions: 5 μM, 24 hours, vs vehicle
Experimental: (§1) Murine (ID8) or human (OVCAR5) ovarian tumor cells were treated with vehicle or a chemotherapeutic agent (e.g., cisplatin, carboplatin, or paclitaxel) as described. B/CMBA.Ov murine ovarian epithelial cells were treated with vehicle or PTUPB (1 or 5 μM) for 24 hours. The floating population (e.g., dead cells or “debris”) was collected, and the remaining adhered cells were trypsinized and combined with the dead cells. RAW264.7 murine macrophages were treated with vehicle or PTUPB (5 μM) for 24 hours. The floating population was collected and the remaining adhered cells were detached using a cell scraper (Corning Inc., Corning, NY) and combined with the dead cells. Cells were counted via hemocytometer, pelleted, and resuspended in PBS at 1×10^6 cells/mL. Next, 2×10^5 cells were stained with annexin V and propidium iodide (PI) according to FITC Annexin V/Dead Cell Apoptosis Kit protocol (Life Technologies, Carlsbad, CA). Staining was assessed using the BD LSR Fortessa (BD Biosciences, San Jose, CA) at the Dana-Farber Cancer Institute Jimmy Fund Flow Cytometry Core, and analyzed using FlowJo software (Tree Star Inc., Ashland, OR). Experiments were performed three times with similar results.

[3] = tested on: B/CMBA.Ov murine ovarian epithelial cells; assay: Annexin V/PI cell death analysis of B/CMBA.Ov cells; format: cell-based; conditions: 5 μM, 24 hours, vs vehicle
Experimental: as §1

[4] = tested on: intraperitoneal ovarian tumors (ID8); assay: In vivo cytokines (serum, ascites) in mice bearing intraperitoneal ID8 ovarian tumors
Experimental: In vivo cytokines (serum or ascites) or cytokines in conditioned medium of macrophages treated with PTUPB and exposed to paclitaxel- or carboplatin-generated debris, were assessed according to the protocols provided by Proteome Profiler Mouse Cytokine Array Kit Panel A, Proteome Profiler Mouse Angiogenesis Array Kit, or Proteome Profiler Human Cytokine Array Kit Panel A (R&D Systems, Inc., Minneapolis, MN). Array control allows for comparison between membranes. For in vivo analysis, n=2 mice/group (serum); n=1 mouse/group (ascites).
For quantitation of pro-inflammatory cytokines, serum or conditioned medium from macrophages treated with PTUPB and stimulated with paclitaxel-generated ID8 debris or from paclitaxel-generated ID8 debris alone without macrophages was used according to the protocols provided in each ELISA kit (R&D Systems, Minneapolis, MN).
(§2) All animal studies were reviewed and approved by the Animal Care and Use Committee of Beth Israel Deaconess Medical Center, Boston, MA Mice were housed at a maximum of 5 animals per cage in a pathogen-free facility with unlimited access to sterile water and chow. Daily welfare evaluations and animal sacrifices were carried out according to the Committee guidelines. For murine injections, chemotherapy-generated murine (ID8) or human (OVCAR5) ovarian tumor cell debris was combined with ID8 or OVCAR5 living cells at equal volumes in PBS. Six-week-old female C57BL/6 (The Jackson Laboratory, Bar Harbor, ME) or SCID mice (Charles River, Cambridge, MA) were injected subcutaneously or intraperitoneally with 100 μL/mouse of ID8 or OVCAR5 cells, respectively. For orthotopic injections, 6-week-old C57BL/6 female mice were injected with 20 μL/mouse of matrigel (Becton Dickinson and Company, Franklin Lakes, NJ) mixed with paclitaxel-generated ID8 debris and/or ID8 living cells at a 1:1 (matrigel:cells) ratio directly into the right ovarian bursa. Systemic treatment with PTUPB (30 mg/kg/day) or control was administered via mini-osmotic pumps (Alzet Inc., Cupertino, CA) implanted into the peritoneum of the mice 4 weeks post-injection. […]

[5] = tested on: debris-stimulated intraperitoneal ovarian tumors (ID8); assay: Debris-stimulated intraperitoneal ID8 ovarian tumor model, survival; format: in vivo, mice
Experimental: All animal studies were reviewed and approved by the Animal Care and Use Committee of Beth Israel Deaconess Medical Center, Boston, MA Mice were housed at a maximum of 5 animals per cage in a pathogen-free facility with unlimited access to sterile water and chow. Daily welfare evaluations and animal sacrifices were carried out according to the Committee guidelines. For murine injections, chemotherapy-generated murine (ID8) or human (OVCAR5) ovarian tumor cell debris was combined with ID8 or OVCAR5 living cells at equal volumes in PBS. Six-week-old female C57BL/6 (The Jackson Laboratory, Bar Harbor, ME) or SCID mice (Charles River, Cambridge, MA) were injected subcutaneously or intraperitoneally with 100 μL/mouse of ID8 or OVCAR5 cells, respectively. For orthotopic injections, 6-week-old C57BL/6 female mice were injected with 20 μL/mouse of matrigel (Becton Dickinson and Company, Franklin Lakes, NJ) mixed with paclitaxel-generated ID8 debris and/or ID8 living cells at a 1:1 (matrigel:cells) ratio directly into the right ovarian bursa. Systemic treatment with PTUPB (30 mg/kg/day) or control was administered via mini-osmotic pumps (Alzet Inc., Cupertino, CA) implanted into the peritoneum of the mice 4 weeks post-injection. Treatment ended 28 days after implantation of the pumps. Systemic chemotherapy with carboplatin (10 mg/kg q 3 days) or control that were initiated on the day of tumor cell injection.
Statistical analyses for in vitro studies were performed using Student's two-tailed unpaired t-test. Data are represented as mean±S.E.M. with p-values less than 0.05 considered statistically significant. For in vivo studies, the Kaplan-Meier product-limit method and log-rank testing were used to evaluate survival differences over time after the day of tumor cell injection between mice co-injected with tumor cell debris and living cells vs. living cells alone. Data are represented as percent survival with p-values less than 0.01 considered statistically significant.

[6] = tested on: debris-stimulated orthotopic ovarian tumor (ID8); assay: Debris-stimulated orthotopic ID8 ovarian tumor model; format: in vivo, mice; conditions: PTUPB 30 mg/kg/day
Experimental: as §2, with “post-injection. Treatment ended 28 days after implantation of the pumps.” for “post-injection.”

[7] = tested on: RAW264.7 murine macrophages; format: cell-based; conditions: 5 μM, 2 hours pre-treatment

**Q.** How did the “debris-stimulated cytokine surge by primary murine peritoneal macrophages” value [1] turn out when `NS(=O)(=O)c1ccc(-n2nc(CCCNC(=O)Nc3ccc(C(F)(F)F)cc3)cc2-c2ccccc2)cc1` [PTUPB, 4-(5-phenyl-3-{3-[3-(4-trifluoromethyl-phenyl)-ureido]propyl}-pyrazol-1-yl) benzenesulfonamide] was run?
**A.** inhibited a debris-stimulated cytokine surge

**Q.** What about the “induction of cell death of RAW264.7 macrophages” value [2] of the same molecule?
**A.** did not induce cell death

**Q.** What about the “induction of cell death of ovarian epithelial cells (B/CMBA.Ov)” value [3] of the same molecule?
**A.** did not induce cell death

**Q.** And the “serum levels of CXCL13/BCA-1 and SDF-1/CXCL12” value ([4]; ID8-bearing mice administered systemic chemotherapy (carboplatin), PTUPB-treated vs control)?
**A.** reduced serum levels

**Q.** What about the “ascites levels of PIGF-2, PTX-3, MMP9, CCL2/MCP-1, fractalkine/CX3CL1, angiopoietin-1” value ([4]; intraperitoneal ID8 tumors, day 60 post-injection, vs control) of the same molecule?
**A.** decreased levels

**Q.** And the “pro-angiogenic factors serpin E1/PAI-1 and IGFBP1 in serum” value ([4]; mice i.p. injected with ID8 (1×10^6 living cells), day 60 post-injection, vs control)?
**A.** inhibited pro-angiogenic factors

**Q.** What about the sustained survival ([5]; PTUPB 30 mg/kg/day by mini-osmotic pump from 4 weeks post-injection, paclitaxel- or carboplatin-generated ID8 debris + ID8 living cells i.p.) of the same molecule?
**A.** over 120 days post-injection

**Q.** What about the “survival compared to control (Kaplan-Meier, log-rank), paclitaxel-generated debris i.p. model” value ([5]; PTUPB 30 mg/kg/day, log-rank test=9.70, p=0.0018) of the same molecule?
**A.** significantly prolonged survival

**Q.** What about the “survival compared to control (Kaplan-Meier, log-rank), carboplatin-generated debris i.p. model” value ([5]; PTUPB 30 mg/kg/day, log-rank test=9.85, p=0.0017) of the same molecule?
**A.** significantly prolonged survival

**Q.** And the “debris-stimulated orthotopic ovarian tumor growth” value [6]?
**A.** suppressed debris-stimulated orthotopic ovarian tumor growth

**Q.** And the “survival compared to control, paclitaxel-generated debris orthotopic model” value ([6]; log-rank test=7.91, p=0.005)?
**A.** significantly prolonged survival

**Q.** And the “cytokine storm released by macrophages stimulated with aflatoxin B1-generated Hepa 1-6 debris” value [7]?
**A.** prevents the aflatoxin B1-induced cytokine storm; also recorded: able to inhibit; also recorded: prevented
